Paper PMC3652757, “Enhancement of fermentable sugar yields by α-xylosidase supplementation of commercial cellulases” (Biotechnology for Biofuels, 2013)

Biological target: T1, AxlA (Aspergillus niger, UniProt A2QTU5)
T1 sequence (A2QTU5 19-736): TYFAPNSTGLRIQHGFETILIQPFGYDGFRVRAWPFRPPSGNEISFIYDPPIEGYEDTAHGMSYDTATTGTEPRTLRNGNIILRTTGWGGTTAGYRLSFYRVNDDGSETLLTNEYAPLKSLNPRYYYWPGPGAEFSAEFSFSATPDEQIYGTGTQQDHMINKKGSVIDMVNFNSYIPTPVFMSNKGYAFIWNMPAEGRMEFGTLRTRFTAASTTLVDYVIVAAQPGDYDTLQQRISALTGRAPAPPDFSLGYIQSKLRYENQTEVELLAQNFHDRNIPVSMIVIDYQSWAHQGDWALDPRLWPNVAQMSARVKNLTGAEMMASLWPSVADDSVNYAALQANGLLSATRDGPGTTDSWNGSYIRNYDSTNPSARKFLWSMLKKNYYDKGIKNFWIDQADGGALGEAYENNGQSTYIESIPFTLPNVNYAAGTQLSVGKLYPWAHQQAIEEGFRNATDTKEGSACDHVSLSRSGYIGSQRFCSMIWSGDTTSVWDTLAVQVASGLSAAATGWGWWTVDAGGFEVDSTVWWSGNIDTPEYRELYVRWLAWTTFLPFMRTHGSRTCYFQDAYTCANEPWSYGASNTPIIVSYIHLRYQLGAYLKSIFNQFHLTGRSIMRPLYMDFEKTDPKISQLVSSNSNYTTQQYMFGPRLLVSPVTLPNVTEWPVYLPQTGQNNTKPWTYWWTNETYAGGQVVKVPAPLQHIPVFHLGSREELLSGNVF
Experiment: pNPαX hydrolysis competition, nonlinear curve fitting
Assay type: biochemical
Conditions: substrate p-nitrophenyl-α-xyloside 0-20 mM; reaction product

OC1OC[C@@H](O)[C@H](O)[C@H]1O (stereo partly shown) [Xyl]
Ki: 13.7 mM
